In patent US10722886B2, “Apparatus for separating fine particles and separating method using same” (UNIVERSITY-INDUSTRY COOPERATION GROUP OF KYUNG HEE …, priority 2014, dated 2020):

Tested on: Jurkat cell
Test: Cytotoxicity experiment (LDH analysis) on Jurkat cells exposed to Triton X-100
Format: cell-based
Conditions: Jurkat cell exposed to Triton X-100 (0 to 0.1%) for 30 min in CO2 incubator; LDH in separated culture medium, absorbance at 490 nm
Experimental: After the cell treated using Triton X-100 according to the Example of the present invention was separated using the apparatus for separating the microparticles, the apparatus fastened to the 1 mL syringe, and the conventional centrifuge, the cytotoxicity (%) was measured from the collected cell culture medium.
Specifically, a Jurkat cell was cultured in RPMI (WELGENE Inc., Korea) suspended using a 10% FBS (WELGENE) and a 1% antibiotic solution containing penicillin and streptomycin (WELGENE). In order to visualize the flow of the cell, the cell was washed with DPBS (WELGENE) and then dyed using a 10 μM CFDA cell tracer (Invitrogen) at room temperature for 15 min. After the dyeing, the cell was washed twice with DPBS.
The Jurkat cell was exposed to Triton X-100 at various concentrations (0 to 0.1%) in a CO2 incubator for 30 min. Subsequently, the fluid from which the microparticles were separated was obtained using the apparatus for separating the microparticles, to which the syringe was fastened, according to the present invention (manual injection at room temperature for 3 min), and the centrifuge (at 1000 rpm and room temperature for 5 min). […] The lactate dehydrogenase (LDH) analysis was performed in accordance with the manufacturer's directions (#88953, Pierce, Rockford, Ill.), and the absorbance was then measured at 490 nm. […]

## Triton X-100
  IC50 value of Triton X-100 (cytotoxicity, LDH analysis): 0.0076%
